{"source": "patent US12310975B2", "about": "“Modulators of BCL6 proteolysis and associated methods of use” (Arvinas Operations, Inc., priority 2019, dated 2025)"}
{"biological_target": "BCL6 (Homo sapiens (Human), UniProt P41182)", "test": "Immunofluorescence high content imaging of BCL6 degradation in T47D cells", "assay_type": "cell-based", "conditions": "class symbols A-D, read-out: EC50 (nM)*", "in_short": "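T47D cells were treated 3 days at 37 °C with an 11-point 3-fold dilution series (top 0.1 or 1 μM), then fixed, permeabilized and immunostained for BCL6 with Alexa-488 secondary, CellMask and Hoechst. BCL6 signal was imaged at 10×, 4 fields/well, with top-hat smoothing.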", "units": {"DC50": "nM"}}
{"molecule": "CNC(=O)COc1cc2cc(Nc3nc(N4CCC(c5ccc(OCCCOCCOCCOc6ccc7c(c6)CN(C6CCC(=O)NC6=O)C7=O)cc5)CC4)ncc3Cl)ccc2n(C)c1=O", "note": "(stereo not shown) [compound 89, 2-((6-((5-chloro-2-(4-(4-(3-(2-(2-((2-(2,6-dioxopiperidin-3-yl)-1-oxoisoindolin-5-yl)oxy)ethoxy)ethoxy)propoxy)phenyl)piperidin-1-yl)pyrimidin-4-yl)amino)-1-methyl-2-oxo-1,2-dihydroquinolin-3-yl)oxy)-N-methylacetamide]", "DC50": "> 100"}
{"molecule": "CNC(=O)COc1cc2cc(Nc3nc(N4CCC(c5ccccc5OCCCOCCOCCOCCOc5ccc6c(c5)CN(C5CCC(=O)NC5=O)C6=O)CC4)ncc3Cl)ccc2n(C)c1=O", "note": "(stereo not shown) [compound 90, 2-((6-((5-chloro-2-(4-(2-(3-(2-(2-(2-((2-(2,6-dioxopiperidin-3-yl)-1-oxoisoindolin-5-yl)oxy)ethoxy)ethoxy)ethoxy)propoxy)phenyl)piperidin-1-yl)pyrimidin-4-yl)amino)-1-methyl-2-oxo-1,2-dihydroquinolin-3-yl)oxy)-N-methylacetamide]", "DC50": "> 100"}
{"molecule": "O=C1CCC(N2C(=O)c3ccc(N4CCN(CC5CCN(c6cc(Nc7ccc8c(c7)CCC(=O)N8)c(Cl)cc6[N+](=O)[O-])CC5)CC4)cc3C2=O)C(=O)N1", "note": "(stereo not shown) [compound 92, 5-(4-((1-(4-chloro-2-nitro-5-((2-oxo-1,2,3,4-tetrahydroquinolin-6-yl)amino)phenyl)piperidin-4-yl)methyl)piperazin-1-yl)-2-(2,6-dioxopiperidin-3-yl)isoindoline-1,3-dione]", "DC50": "> 100"}
{"molecule": "CNC(=O)COc1cc2cc(Nc3nc(N4CCC(OCCOCCOCCOCCCOc5ccccc5-c5ccc6c(c5)CN(C5CCC(=O)NC5=O)C6=O)CC4)ncc3Cl)ccc2n(C)c1=O", "note": "(stereo not shown) [compound 93, 2-((6-((5-chloro-2-(4-(2-(2-(2-(3-(2-(2-(2,6-dioxopiperidin-3-yl)-1-oxoisoindolin-5-yl)phenoxy)propoxy)ethoxy)ethoxy)ethoxy)piperidin-1-yl)pyrimidin-4-yl)amino)-1-methyl-2-oxo-1,2-dihydroquinolin-3-yl)oxy)-N-methylacetamide]", "DC50": "> 100"}
{"molecule": "CNC(=O)COc1cc2cc(Nc3nc(N4CCC(OCCOCCOCCCCOc5ccc(-c6ccc7c(c6)CN(C6CCC(=O)NC6=O)C7=O)cc5)CC4)ncc3Cl)ccc2n(C)c1=O", "note": "(stereo not shown) [compound 94, 2-((6-((5-chloro-2-(4-(2-(2-(4-(4-(2-(2,6-dioxopiperidin-3-yl)-1-oxoisoindolin-5-yl)phenoxy)butoxy)ethoxy)ethoxy)piperidin-1-yl)pyrimidin-4-yl)amino)-1-methyl-2-oxo-1,2-dihydroquinolin-3-yl)oxy)-N-methylacetamide]", "DC50": "> 100"}
{"molecule": "CNC(=O)COc1cc2cc(Nc3nc(N4CCC(Oc5cccc(OCCCCOCCOCCOc6ccc7c(c6)CN(C6CCC(=O)NC6=O)C7=O)c5)CC4)ncc3Cl)ccc2n(C)c1=O", "note": "(stereo not shown) [compound 95, 2-((6-((5-chloro-2-(4-(3-(4-(2-(2-((2-(2,6-dioxopiperidin-3-yl)-1-oxoisoindolin-5-yl)oxy)ethoxy)ethoxy)butoxy)phenoxy)piperidin-1-yl)pyrimidin-4-yl)amino)-1-methyl-2-oxo-1,2-dihydroquinolin-3-yl)oxy)-N-methylacetamide]", "DC50": "> 100"}
{"molecule": "CNC(=O)COc1cc2cc(Nc3nc(N4CCC(Oc5ccc(OCCCOCCOCCOc6ccc7c(c6)CN(C6CCC(=O)NC6=O)C7=O)cc5)CC4)ncc3Cl)ccc2n(C)c1=O", "note": "(stereo not shown) [compound 96, 2-((6-((5-chloro-2-(4-(4-(3-(2-(2-((2-(2,6-dioxopiperidin-3-yl)-1-oxoisoindolin-5-yl)oxy)ethoxy)ethoxy)propoxy)phenoxy)piperidin-1-yl)pyrimidin-4-yl)amino)-1-methyl-2-oxo-1,2-dihydroquinolin-3-yl)oxy)-N-methylacetamide]", "DC50": "> 100"}
